{"source": "patent US11384062B2", "about": "(CombiPhos Catalysts, Inc., priority 2017, dated 2022)", "assay": "in vitro", "conditions": "rat, microsomes", "protocol": "Buffer solutions were prepared as follows: • a. Buffer A: 0.1 M monobasic potassium phosphate buffer containing 1.0 mM EDTA. • b. Buffer B: 0.1 M dibasic potassium phosphate buffer containing 1.0 mM EDTA. • c. Buffer C: 0.1 M potassium phosphate buffer containing 1.0 mM EDTA was adjusted to pH 7.4 by titrating 700 mL of Buffer B with Buffer A while monitoring with a pH meter. • 2. An NADPH stock solution (6 mM) was prepared by dissolving NADPH into Buffer C. • 3. Spiking solutions were prepared for the reference compound (ketanserin) and the test compounds as follows: • a. A 500 μM spiking solution of the reference compound (ketanserin) was generated by adding 10 μL of a 10 mM stock solution of ketanserin in DMSO into 190 μL acetonitrile. A 1.5 μM spiking solution in microsomes (0.75 mg/mL) was generated by adding 1.5 μL of the 500 μM spiking solution and 18.75 μL of 20 mg/mL rat liver microsomes into 479.75 μL of Buffer C while cooling with ice. • b. […] A 0.75 μM spiking solution in microsomes (0.75 mg/mL) was generated by adding 1.5 μL of the 250 μM spiking solution and 18.75 μL of 20 mg/mL rat liver microsomes into 479.75 μL of Buffer C while cooling with ice. • 4. 30 μL of 1.5 μM spiking solution containing 0.75 mg/mL microsomes solution was dispensed into assay plates designated for different time points (0 min, 5 min, 15 min, 30 min, and 45 min; or 0 min, 15 min, 30 min, 45 min, and 60 min as shown in Tables 1-5 below) while cooling with ice. • 5. For the 0 min time point assay plate, 135 μL of ACN containing IS followed immediately by 15 μL of the 6 mM NADPH stock solution were added to the wells of the 0 min assay plate. • 6. All assay plates other than the 0 min assay plate were pre-incubated at 37° C. for 5 min, and then 15 μL of the 6 mM NADPH stock solution was added to the wells of the assay plates to start the reaction and timing. At the appropriate time (5 min, 15 min, 30 min, 45 min, or 60 min), 135 μL of ACN containing IS was added to the wells of the corresponding assay plates, respectively, to stop the reaction. • 7. After quenching, the plates were shaken in a vibrator (IKA, MTS 2/4) for 10 min (600 rpm/min) and then centrifuged at 5594 g for 15 min (Thermo Multifuge×3R). • 8. After centrifugation, 50 μL of the supernatant from each well was transferred into a 96-well sample plate containing 50 μL of ultrapure water (Millipore, ZMQS50F01) for LC/MS analysis.", "data": [{"smiles": "[2H]C1([2H])NC([2H])([2H])C([2H])(c2ccc(-n3cc4cccc(C(N)=O)c4n3)cc2)C([2H])([2H])C1([2H])[2H]", "note": "(racemic) [Example 3, 2-(4-(piperidin-3-yl-2,2,3,4,4,5,5,6,6-d9)phenyl)-2H-indazole-7-carboxamide]", "values": [{"measurement": "Percent Remaining (%) 0 min", "setting": "0 h, 0.5 µM, pH 7.4", "result": 100.00, "unit": "%"}, {"measurement": "Percent Remaining (%) 15 min", "setting": "0.25 h, 0.5 µM, pH 7.4", "result": 92.77, "unit": "%"}, {"measurement": "Percent Remaining (%) 30 min", "setting": "0.5 h, 0.5 µM, pH 7.4", "result": 82.19, "unit": "%"}, {"measurement": "Percent Remaining (%) 45 min", "setting": "0.75 h, 0.5 µM, pH 7.4", "result": 74.60, "unit": "%"}, {"measurement": "Percent Remaining (%) 60 min", "setting": "1 h, 0.5 µM, pH 7.4", "result": 69.31, "unit": "%"}, {"measurement": "CLint scaled at 0.5 µM", "setting": "pH 7.4, Clint", "result": 22.7, "unit": "mL/min/kg"}, {"measurement": "half-life at 0.5 µM", "setting": "pH 7.4, T1/2", "result": 1.82, "unit": "h"}]}]}
